Measurements from ChEMBL document CHEMBL1201862, “PubChem BioAssay data set” (2004).
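Grown in 96-well plates, cells were treated for 48 hours with each compound at five concentrations. Insufficient inhibition: endpoint recorded as highest concentration tested. GI50 marks 50% less growth.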 Active and inactive are the calls of the source. Cut-off read from the data, not from the text of the source: active = GI50 up to about 1.1 µM and inactive = higher.

Assays:
Experiment in all cases: NCI anticancer screen, dose series, 48 h
[1] = system: 786-0
[2] = system: A549
[3] = system: ACHN
[4] = system: CCRF-CEM
[5] = system: DMS-114
[6] = system: HCT-116
[7] = system: HCT-15
[8] = system: HOP-18
[9] = system: HOP-92
[10] = system: KM-20L2
[11] = system: MOLT-4
[12] = system: SF-295
[13] = system: SK-MEL-2
[14] = system: SK-OV-3
[15] = system: SNB-19
[16] = system: SNB-75
[17] = system: SW-620
[18] = system: T47D
[19] = system: TK-10
[20] = system: UACC-257

Compound	GI50 [1]	GI50 [2]	GI50 [3]	GI50 [4]	GI50 [5]	GI50 [6]	GI50 [7]	GI50 [8]	GI50 [9]	GI50 [10]	GI50 [11]	GI50 [12]	GI50 [13]	GI50 [14]	GI50 [15]	GI50 [16]	GI50 [17]	GI50 [18]	GI50 [19]	GI50 [20]
Cc1csc2c1C(=O)c1ccsc1C2=O	4.63 µM (inactive)	1.72 µM (inactive)	2.98 µM (inactive)	4.03 µM (inactive)	1.69 µM (inactive)	2.17 µM (inactive)	1.49 µM	1.95 µM (inactive)	3.56 µM (inactive)	4.28 µM (inactive)	4.61 µM (inactive)	1.59 µM (inactive)	2.03 µM (inactive)	20.4 µM (inactive)	3.37 µM (inactive)	1.97 µM (inactive)	2.47 µM (inactive)	2.2 µM (inactive)	19.1 µM (inactive)	1.52 µM (inactive)
COC(=O)C1=C(C=O)C2C=CC1C2 (stereo not drawn)	> 92.3 µM (inactive)	> 100 µM (inactive)	> 67.9 µM (inactive)	25.1 µM (inactive)	> 57.7 µM (inactive)	58.9 µM (inactive)	42.1 µM	30.5 µM (inactive)	> 100 µM (inactive)	> 63 µM (inactive)	35.6 µM (inactive)	> 100 µM (inactive)	> 100 µM (inactive)	> 68.7 µM (inactive)	> 100 µM (inactive)	28.6 µM (inactive)	43.6 µM (inactive)	> 100 µM (inactive)	53.8 µM (inactive)	47.9 µM (inactive)
O=c1[nH]cc(C(F)(C(F)(F)F)C(F)(F)F)c(=O)[nH]1	> 100 µM (inactive)	> 100 µM (inactive)	> 100 µM (inactive)	> 100 µM (inactive)	> 100 µM (inactive)	> 100 µM (inactive)	> 100 µM	> 100 µM (inactive)	> 100 µM (inactive)	> 100 µM (inactive)	> 100 µM (inactive)	> 100 µM (inactive)	> 100 µM (inactive)	> 100 µM (inactive)	> 100 µM (inactive)	> 100 µM (inactive)	> 100 µM (inactive)	–	> 100 µM (inactive)	> 100 µM (inactive)
CC(C)c1cc(OCC(O)CO)cc(C(C)C)c1 (stereo not drawn)	> 100 µM (inactive)	> 100 µM (inactive)	> 100 µM (inactive)	> 100 µM (inactive)	> 100 µM (inactive)	> 100 µM (inactive)	> 100 µM	> 100 µM (inactive)	> 100 µM (inactive)	> 100 µM (inactive)	> 100 µM (inactive)	> 100 µM (inactive)	> 100 µM (inactive)	> 100 µM (inactive)	> 100 µM (inactive)	> 100 µM (inactive)	> 100 µM (inactive)	–	> 100 µM (inactive)	> 100 µM (inactive)
CCCCCCCCCCCCCCCC(=O)OCCOCCOCCOCCOCCOC(=O)CCCCCCCCCCCCCCC	> 100 µM (inactive)	> 100 µM (inactive)	> 100 µM (inactive)	> 100 µM (inactive)	> 100 µM (inactive)	> 100 µM (inactive)	> 100 µM	> 100 µM (inactive)	> 100 µM (inactive)	> 100 µM (inactive)	> 100 µM (inactive)	> 100 µM (inactive)	> 100 µM (inactive)	> 100 µM (inactive)	> 100 µM (inactive)	> 10 µM (inactive)	> 100 µM (inactive)	–	> 100 µM (inactive)	> 100 µM (inactive)
COc1cc2c(c(OC)c1OC)-c1ccc(SC)c(=O)cc1C(NC=O)CC2 (stereo not drawn)	< 0.01 µM (active)	< 0.01 µM (active)	< 0.01 µM (active)	0.015 µM (active)	< 0.01 µM (active)	< 0.01 µM (active)	< 0.01 µM	> 45.7 µM (inactive)	< 0.01 µM (active)	< 0.01 µM (active)	< 0.01 µM (active)	< 0.01 µM (active)	< 0.01 µM (active)	0.0371 µM (active)	0.0344 µM (active)	< 0.0442 µM (active)	< 0.0275 µM (active)	54.1 µM (inactive)	2.02 µM (inactive)	0.249 µM (active)
O=c1c(O)c(-c2ccccc2)n(O)c2ccc(Cl)cc12	28.7 µM (inactive)	29.6 µM (inactive)	30.6 µM (inactive)	23.9 µM (inactive)	23 µM (inactive)	10.9 µM (inactive)	16 µM	47.8 µM (inactive)	34.6 µM (inactive)	28.1 µM (inactive)	32.7 µM (inactive)	29.4 µM (inactive)	21.5 µM (inactive)	30.8 µM (inactive)	34.2 µM (inactive)	29 µM (inactive)	16.6 µM (inactive)	–	31.3 µM (inactive)	25.1 µM (inactive)
COc1ccc(Cc2nc3ccccc3s2)cc1OC	17.9 µM (inactive)	23.5 µM (inactive)	16.8 µM (inactive)	14.8 µM (inactive)	15.7 µM (inactive)	15.8 µM (inactive)	24.2 µM	23.9 µM (inactive)	17.7 µM (inactive)	19.3 µM (inactive)	20.2 µM (inactive)	15.1 µM (inactive)	20.3 µM (inactive)	28.2 µM (inactive)	32.5 µM (inactive)	18.8 µM (inactive)	18.5 µM (inactive)	–	36.2 µM (inactive)	18.1 µM (inactive)
COc1ccc(SS(=O)(=O)c2ccc(OC)cc2)cc1	17.2 µM (inactive)	24.4 µM (inactive)	18.4 µM (inactive)	2.64 µM (inactive)	16 µM (inactive)	16.1 µM (inactive)	36.7 µM	22.5 µM (inactive)	35.9 µM (inactive)	21.3 µM (inactive)	13.2 µM (inactive)	19.5 µM (inactive)	36 µM (inactive)	34.2 µM (inactive)	24.4 µM (inactive)	23.2 µM (inactive)	3.69 µM (inactive)	–	23.3 µM (inactive)	22.9 µM (inactive)
O=C1NC(=O)C2C1C1C=C3c4ccccc4N(c4ccccc4)C32[C@H]2C(=O)NC(=O)[C@@H]12 (stereo partly drawn)	> 100 µM (inactive)	> 100 µM (inactive)	> 100 µM (inactive)	> 100 µM (inactive)	> 100 µM (inactive)	> 100 µM (inactive)	> 100 µM	> 100 µM (inactive)	> 100 µM (inactive)	> 100 µM (inactive)	> 100 µM (inactive)	> 100 µM (inactive)	> 100 µM (inactive)	> 100 µM (inactive)	> 100 µM (inactive)	> 100 µM (inactive)	> 100 µM (inactive)	–	> 100 µM (inactive)	> 100 µM (inactive)
